Measurements as given in US12030868B2, “Prodrugs of CGRP antagonists” (Pfizer Ireland Pharmaceuticals, priority 2018, dated 2024).
Where a name gives a salt, the structure may show the parent alone.

How the values were obtained:
[1] = Caco-2 permeability assay; assay type: in vitro ADME, human; conditions: human, Caco-2 monolayer, donor 10 μM, 37° C., pH 7.4; for Papp A→B at 90 min, 10 μM: apical to basolateral; for Papp B→A at 90 min, 10 μM: basolateral to apical
Experimental: (§1) Caco-2 Permeability Assay
(§2) The Caco-2 cells are cultured to confluency, trypsinized and seeded onto a filter transwell insert at a density of ^˜32,000 cells/well in DMEM cell culture medium. Cells are grown in a humidified atmosphere of 5% CO2 at 37° C. Following an overnight attachment period (24 h after seeding), the cell medium is replaced with fresh medium in both the apical and basolateral compartments every other day. The cell monolayers are used for transport studies 21 days post seeding after measuring the TEER values ([…]). The apical sides and basolateral sides are washed consecutively with HBSS 2.5% (v/v), HEPES (pH 7.4) or HBSS 2.5% (v/v), HEPES 10% (v/v), and Fetal Bovine Serum (pH 7.4) at 37° C. in an incubator under an atmosphere of 5% CO2.
(§3) Donor working solution is prepared by dilution of DMSO stock of test article or positive control with transport media to 10 μM.
(§4) For A→B directional transport, the donor working solution (with test article or positive control, with or without Pgp inhibitor) is added to the apical (A) compartment and the transport media as receiver working solution is added to the basolateral (B) compartment. For B→A directional transport, the donor working solution (with positive control or test article, with or without Pgp inhibitor) is added to the basolateral (B) compartment and transport media as receiver working solution is added to the apical (A) compartment.
(§5) The cells are incubated in a humidified atmosphere of 5% CO2 at 37° C. for 90 minutes.
(§6) At the end of the incubation, samples are taken from both donor and receiver compartments and transferred into 96-well assay plates containing internal standard solution (IS) in each well. After centrifugation, the supernatant solutions are transferred to clean 96 well plates and analyzed by LC-MS/MS. The MS detection is performed using a Sciex API 4000 instrument. Each compound is analyzed by reversed phase HPLC.
(§7) The parameters Papp (apparent permeability) and efflux ratio are calculated as follows: Papp=(dQ/dt)×(1/C0)×(1/A) Efflux ratio=Papp[B→A]/Papp[A→B] • where dQ/dt is the permeability rate, C0 is the initial concentration in the donor compartment, and A is the surface area of the cell monolayer (0.33 cm^2). The Papp value is a rate measured in cm/s.
(§8) Comparing the efflux ratios generated in the presence and absence of a Pgp inhibitor identifies whether the test article is a Pgp substrate.
(§9) Recovery is calculated as follows: % Recovery=(Total compound mass in donor and receiver compartments at the end of the incubation/Initial compound mass in the donor compartment)×100.

[2] = test system: Caco-2 cells; assay: Caco-2 permeability assay; assay type: in vitro ADME, human; conditions: Caco-2 monolayer, donor 10 μM, 90 minutes, 37° C., pH 7.4; for Papp A-B: apical to basolateral; for Papp B-A: basolateral to apical
Experimental: as §1, §2, §3, §4, §5, §6, §7, §8, §9

Row | Papp A→B at 90 min, 10 μM [1] | Papp B→A at 90 min, 10 μM [1] | Compound | Papp A-B [2] | Papp B-A [2]
1 | 2.2 ×10⁻⁶ cm/s | 13.9 ×10⁻⁶ cm/s | Cc1cc2cc3cn(nc13)COC(=O)C(C)(C)CCCCC(C)(C)C(=O)OCn1c(=O)c(cc3ccccc31)C1CCN(CC1)C(=O)N[C@@H](C(=O)N1CCN(C3CCN(C)CC3)CC1)C2 [Example 125, (31R)-14,14,19,19,27-pentamethyl-31-[4-(1-methylpiperidin-4-yl)piperazine-1-carbonyl]-12,21-dioxa-10,23,32,34,40-pentaazahexacyclo[32.2.2.1^2,10.1^23,26.1^25,29.0^4,9]hentetraconta-2,4,6,8,24,26(40),27,29(39)-octaene-13,20,33,41-tetrone] |  | 
2 | 0.839 ×10⁻⁶ cm/s | 20 ×10⁻⁶ cm/s | Cc1cc2cc3cn(nc13)COC(=O)C1(C/C=C\CC3(CC3)C(=O)OCn3c(=O)c(cc4ccccc43)C3CCN(CC3)C(=O)N[C@@H](C(=O)N3CCN(C4CCN(C)CC4)CC3)C2)CC1 [Example 13, (16′Z,31′S)-27′-methyl-31′-[4-(1-methylpiperidin-4-yl)piperazine-1-carbonyl]dispiro[cyclopropane-1,14′-[12,21]dioxa-[10,23,32,34,40]pentaazahexacyclo[32.2.2.1^2,10.1^23,26.1^25,29.0^4,9]hentetracontane-19′,1″-cyclopropane]-2′,4′(9′),5′,7′,16′,24′,26′(40′),27′,29′(39′)-nonaene-13′,20′,33′,41′-tetrone trifluoroacetate] |  | 
3 | 1.13 ×10⁻⁶ cm/s | 10.7 ×10⁻⁶ cm/s | CCCCCCN(C)C(=O)OCn1cc2cc(C[C@@H](NC(=O)N3CCC(c4cc5ccccc5n(COC(=O)N(C)CCCCCC)c4=O)CC3)C(=O)N3CCN(C4CCN(C)CC4)CC3)cc(C)c2n1 [Example 93, {5-[(2R)-2-({4-[1-({[hexyl(methyl)carbamoyl]oxy}methyl)-2-oxo-1,2-dihydroquinolin-3-yl]piperidine-1-carbonyl}amino)-3-[4-(1-methylpiperidin-4-yl)piperazin-1-yl]-3-oxopropyl]-7-methyl-2H-indazol-2-yl}methyl N-hexyl-N-methylcarbamate] |  | 

Further lines, the compound ahead of its results:

Row | Compound | Papp A→B at 90 min, 10 μM [1] | Papp B→A at 90 min, 10 μM [1] | Papp A-B [2] | Papp B-A [2]
4 | Cc1cc2cc3cn(nc13)COC(=O)C(C)(C)C/C=C\CC(C)(C)C(=O)OCn1c(=O)c(cc3ccccc31)C1CCN(CC1)C(=O)N[C@@H](C(=O)N1CCN(C3CCN(C)CC3)CC1)C2 [Example 10, (16Z,31R)-14,14,19,19,27-pentamethyl-31-[4-(1-methylpiperidin-4-yl)piperazine-1-carbonyl]-12,21-dioxa-10,23,32,34,40-pentaazahexacyclo[32.2.2.1^2,10.1^23,26.1^25,29.0^4,9]hentetraconta-2,4(9),5,7,16,24,26(40),27,29(39)-nonaene-13,20,33,41-tetrone] | 0.31 ×10⁻⁶ cm/s | 28.9 ×10⁻⁶ cm/s |  | 
5 | Cc1cc(C[C@@H](NC(=O)N2CCC(c3cc4ccccc4[nH]c3=O)CC2)C(=O)N2CCN(C3CCN(C)CC3)CC2)cc2cn[nH]c12 [BHV-3500, N-[(2R)-3-(7-methyl-1H-indazol-5-yl)-1-[4-(1-methylpiperidin-4-yl)piperazin-1-yl]-1-oxopropan-2-yl]-4-(2-oxo-1,2-dihydroquinolin-3-yl)piperidine-1-carboxamide, reference compound] | < 0.05 ×10⁻⁶ cm/s |  |  | 
6 | Cc1cc(C[C@@H](NC(=O)N2CCC(c3cc4ccccc4n(COC(=O)C(C)(C)C)c3=O)CC2)C(=O)N2CCN(C3CCN(C)CC3)CC2)cc2cn(COC(=O)C(C)(C)C)nc12 [Example 4, {5-[(2R)-2-{[4-(1-{[(2,2-dimethylpropanoyl)oxy]methyl}-2-oxo-1,2-dihydroquinolin-3-yl)piperidine-1-carbonyl]amino}-3-[4-(1-methylpiperidin-4-yl)piperazin-1-yl]-3-oxopropyl]-7-methyl-2H-indazol-2-yl}methyl 2,2-dimethylpropanoate trifluoroacetate] | 5.1 ×10⁻⁶ cm/s | 2.9 ×10⁻⁶ cm/s |  | 
7 | (R)-(7-methyl-5-(3-(4-(1-methylpiperidin-4-yl)piperazin-1-yl)-3-oxo-2-(4-(2-oxo-1,2-dihydroquinolin-3-yl)piperidine-1-carboxamido)propyl)-1H-indazol-1-yl)methyl heptanoate compound with (R)-(7-methyl-5-(3-(4-(1-methylpiperidin-4-yl)piperazin-1-yl)-3-oxo-2-(4-(2-oxo-1,2-dihydroquinolin-3-yl)piperidine-1-carboxamido)propyl)-2H-indazol-2-yl)methyl heptanoate (1:1) [Example 61] |  |  | 2.5 ×10⁻⁶ cm/s | 1.96 ×10⁻⁶ cm/s
8 | (R)-(3-(1-(3-(7-methyl-2-(octanoyloxymethyl)-2H-indazol-5-yl)-1-(4-(1-methylpiperidin-4-yl)piperazin-1-yl)-1-oxopropan-2-ylcarbamoyl)piperidin-4-yl)-2-oxoquinolin-1(2H)-yl)methyl octanoate compound with (R)-heptyl 7-methyl-5-(3-(4-(1-methylpiperidin-4-yl)piperazin-1-yl)-2-(4-(1-(octanoyloxymethyl)-2-oxo-1,2-dihydroquinolin-3-yl)piperidine-1-carboxamido)-3-oxopropyl)-1H-indazole-1-carboxylate (1:1) [Example 59] |  |  | 2.2 ×10⁻⁶ cm/s | 7.6 ×10⁻⁶ cm/s
